Common to all, as to assay: DTP human tumour cell line panel, 48 h
Test [1] concerns M14 melanoma.
The subject of test [2] is MDA-MB-231 breast.
The subject of test [3] is NCI-H460 lung.
In test [4] the test system is NCI-H522 lung.
Test [5] relates to NCI/ADR-RES ovarian.
In test [6] the test system is SK-MEL-5 melanoma.
Test [7] concerns UACC-257 melanoma.
The subject of test [8] is UACC-62 melanoma.
The test system of test [9] is EKVX NSCLC.
In test [10] the test system is SR leukemia.

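All cell lines were grown in 96-well plates and treated with compound for 48 hours. Here, GI50 denotes the concentration required for 50% inhibition of growth. TGI marks complete inhibition of growth.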

The term GI50 denotes the concentration that inhibits growth by half. One may read the TGI as the concentration at which net growth stops. Lower therefore signals greater sensitivity of the cells. Take `CCn1cc(C(=O)O)c(=O)c2cc(F)c(N3CCN(S(=O)(=O)c4cccc5ccccc45)CC3)cc21`: the GI50 in test [1] was 4.37 µM; in [2], 1.91 µM; in [3], 3.43 µM; in test [4], 2.78 µM; in [5], 3.2 µM; in [6], 2.24 µM. For the same compound, the GI50 was 2.72 µM in test [7] and 2.25 µM in [8]. Moreover, the TGI in test [1] is above 100 µM; in [2], 4.71 µM; in [3], above 100 µM; in [4], 8.04 µM; in [5], above 100 µM; in [6] it was 5.17 µM. In addition, the TGI in [7] was 7.72 µM; in [8], 7.73 µM.

For `COC(=O)C1C(C(=O)OC)C2C(=O)C3C(C(=O)OC)C(C(=O)OC)C3C(=O)C12` (stereo unspecified), the TGI in test [9], in test [3], in test [4], in [10] and in test [7] was above 100 µM throughout.

Regarding `CC1=N/C(=C\c2ccc(/C=C3/N=C(C)OC3=O)cc2)C(=O)O1`, the TGI in test [1], in [4], in [6], in [7] and in test [8] was above 100 µM each time.

Turning to `COc1cc(Nc2cnc3ccc(C(F)(F)F)cc3n2)cc(OC)c1OC`, the TGI in test [9], in test [3], in test [10] and in test [7] was above 100 µM throughout.

On to `COC(=O)/C=C(/C(=O)OC)C1(C)c2cc(C(=O)OC)c(C(=O)OC)c(N)c2C(=N)N1c1ccccc1` (stereo unspecified), for which the TGI was above 100 µM in test [9]; 33.6 µM in [1]; above 100 µM in test [3]; 27.8 µM in test [4]; 58.5 µM in test [10]; 41.2 µM in test [8].

As to `CCN(CC)Cc1cc(Nc2nc(NC3CCC(N(C)C)CC3)c3ccccc3n2)ccc1OC` (stereo unspecified), the GI50 is 7.75 µM in test [9]; 1.91 µM in test [1]; 1.7 µM in [2]; 5.18 µM in test [3]; 2.45 µM in test [4]; 1.54 µM in [6]. Moreover, the figures for the GI50 in [10], in test [7] and in test [8] were 2.13 µM, 1.82 µM and 13.2 µM, respectively. Also, the TGI stood at 25.5 µM in test [9]; 3.57 µM in [1]; 6.09 µM in test [2]; 17.6 µM in test [3]; 6.96 µM in test [4]; 2.87 µM in test [6]. In addition, the TGI in [10] was 4.74 µM; in [7], 3.84 µM; in [8] it was 27.2 µM.

As to `Cc1ccc(S(=O)(=O)OCC/C(=C\[Si](C)(C)C)c2ccccc2)cc1`, the total growth inhibition concentration (TGI) in test [9], in test [1], in test [3], in [4], in test [6] and in test [10] was above 100 µM throughout. Besides, the TGI in test [7] and in test [8] was above 100 µM each time.

As for `O=C1NC(=O)c2c1n(Cc1ccccc1)c(=O)n2Cc1ccccc1`, the TGI in test [9], in [1], in test [3], in test [4], in test [6] and in [7] was above 100 µM each time. Besides, the TGI in [8] was above 100 µM.

For the compound `CCOC(=O)c1nc(C)oc1C(F)(F)F`, the TGI in test [9], in test [1], in test [3], in test [4], in test [10] and in test [7] was above 100 µM each time. In addition, in test [8], the TGI is above 100 µM.

Turning to `COc1nc2c(c(O)c(C)c(=O)n2OC2OCC(OC(C)=O)C(OC(C)=O)C2OC(C)=O)c(=O)n1C` (stereo unspecified), the concentration for total growth inhibition (TGI) in test [9], in test [1], in test [3], in [4], in test [6] and in test [10] was above 100 µM in each case. This compound also returned a concentration for total growth inhibition (TGI) in test [8] above 100 µM.

For `O=C1[C@@H]2C(c3c(Cl)cccc3Cl)=NO[C@@H]2C(=O)N1c1ccc(Cc2ccc(N3C(=O)[C@H]4C(c5c(Cl)cccc5Cl)=NO[C@H]4C3=O)cc2)cc1`, the total growth inhibition concentration (TGI) in test [9], in test [1], in test [3], in test [6], in test [7] and in test [8] was above 100 µM throughout.

Turning to `N#CC(C(=O)C(=O)Nc1c(Cl)cccc1Cl)c1ccccc1` (stereo unspecified), the GI50 in test [9], in [1], in [3], in test [6] and in [8] was above 100 µM throughout. Moreover, the concentration for total growth inhibition (TGI) in test [9], in test [1], in test [3], in [6] and in test [8] was above 100 µM throughout.

Take `N#C/C(=C\c1cc(OCc2ccccc2)c(OCc2ccccc2)cn1)C(N)=O`: the TGI in test [9] was above 100 µM; in test [1], above 100 µM; in test [3], above 100 µM; in [4] it was 41.2 µM; in test [6] it was above 100 µM; in test [7] it was above 100 µM. The TGI in test [8] is above 100 µM.

`NNC(=O)C(=O)N/N=C1/CCCC1C(=O)CCC(=O)Nc1ccc(Cl)cc1` (stereo unspecified): the TGI in test [9], in test [1], in test [3], in test [4], in [6] and in test [10] was above 100 µM throughout. The TGI is above 100 µM in test [7] and 24 µM in [8].

In the case of `CCCCCCCCCCCC[N+]1(CCCCCCCCCCCC)CCCC(C)C1` (stereo unspecified), the 50% growth inhibitory concentration (GI50) is 0.269 µM in test [9], 4.41 µM in test [5] and 0.244 µM in [8]. Besides, the results for the TGI in test [9], in test [5] and in test [8] were 1.65 µM, above 100 µM and 1.27 µM, respectively.

With `Cc1ccc2c(c1)CN1c3ccc(C)cc3CN2C1c1ccccc1O`, the TGI in test [9] was 54.9 µM; in [1], above 100 µM; in [3], above 100 µM; in [4], above 100 µM; in test [6] it was 30.5 µM; in test [10], above 100 µM. This compound also came in with a TGI in test [8] above 100 µM.

For the compound `O=c1/c(=C/c2ccccc2[N+](=O)[O-])sc2nnc(-c3cccnc3)n12`, the TGI in test [9], in test [1], in test [3], in [6], in test [10] and in test [7] was above 100 µM in each case. In [8], the TGI is above 100 µM.

Consider `COc1cc([C@@H]2c3cc4c(cc3[C@@H](NC(=O)c3ccc(C#N)cc3)C3COC(=O)[C@@H]32)OCO4)cc(OC)c1O` (stereo partly specified), for which the TGI in [9] was 5.73 µM; in [1], 12.4 µM; in test [3] it was 1.43 µM; in [4], 2.39 µM; in test [7], 20.1 µM; in [8], 2.19 µM.

Turning to `O=[N+]([O-])c1ccc(Cl)c2c([N+](=O)[O-])cccc12`, the total growth inhibition concentration (TGI) in test [9], in test [6], in [10] and in test [8] was above 10 µM each time.

As to `COc1cc2oc(-c3ccc(O)cc3)cc(=O)c2c(O)c1C1OC(CO)C(O)C(O)C1O` (stereo unspecified), the TGI in test [9], in test [1], in [3], in test [4], in test [6] and in test [10] was above 100 µM each time. In addition, the TGI in test [7] and in test [8] was above 100 µM each time.

On to `O=C1NC2=C(CCCCC/C2=N\O)C12CCCCCC2`, for which the concentration for total growth inhibition (TGI) in test [9], in test [1], in test [3], in [4], in [6] and in test [10] was above 100 µM each time. The TGI in [7] and in [8] was above 100 µM throughout.

Take `Cc1nc(N)nc(CCC(=O)Nc2cccc(C(F)(F)F)c2)c1-c1ccc(Cl)cc1`: the TGI in [9] was above 100 µM; in test [1], above 100 µM; in [3], above 100 µM; in test [4] it was above 100 µM; in test [6] it was above 100 µM; in test [10], 56.8 µM. For the same compound, the TGI in test [7] and in test [8] was above 100 µM each time.

Take `CCc1cccc(C)c1NC(=O)CCc1nc(=S)[nH][nH]1`: the TGI in test [9], in test [1], in test [3], in test [4], in [6] and in test [10] was above 100 µM each time. Also, the TGI in [7] and in test [8] was above 100 µM in each case.

Take `O=C1/C(=C\c2ccccc2)CN(C(=O)CCN2CCCCC2)C/C1=C/c1ccccc1`: the total growth inhibition concentration (TGI) was found to be 10.6 µM in test [9]; 4.66 µM in test [1]; 3.29 µM in test [2]; 5.96 µM in [3]; 2.31 µM in [4]; 3.3 µM in test [6]. Also, the TGI in test [10] turned out to be 14.5 µM; in test [7], 3.52 µM; in test [8] it was 3.08 µM.

As for `O=C(NC1C(=O)NNC1c1cccc([N+](=O)[O-])c1)c1ccccc1` (stereo unspecified), the TGI in test [9], in test [1], in test [3], in test [6], in test [7] and in [8] was above 100 µM throughout.

Consider `OCc1cc2c(cn1)[nH]c1ccc(NCc3ccccc3)cc12`, for which the TGI in [9] is above 100 µM; in [1], 37.5 µM; in test [3] it was 80.2 µM; in test [4] it was 52 µM; in [6], 25.6 µM; in [7], 59.9 µM. Further, the TGI in test [8] came out at 42.7 µM.

As for `O=[N+]([O-])c1ccccc1C1SCc2nc3ccccc3n21` (stereo unspecified), the TGI in test [9] was above 100 µM; in [3] it was above 100 µM; in test [4] it was above 100 µM; in test [6], 48.3 µM; in [10], above 100 µM; in test [7], above 100 µM. In test [8], the TGI was above 100 µM.

As for `O=c1cc(O)cc2n1CCC2`, the TGI in test [9], in test [1], in test [3], in test [4], in [6] and in [7] was above 100 µM in each case. This compound also yielded a TGI in [8] above 100 µM.

As to `COC(=O)C1C(=O)O[C@@H](c2ccc3c(c2)OCO3)C1C(=O)OC` (mixture of isomers), the TGI in test [9], in [1], in test [3], in [4], in test [6] and in test [10] was above 100 µM in each case. Also, the TGI in [7] and in test [8] was above 100 µM each time.

Turning to `COc1ccc2sc3c(NCCCN)nc4ccccc4c3c(=O)c2c1`, the GI50 was 1.75 µM in test [9]; 1.74 µM in test [1]; 1.52 µM in test [2]; 1.86 µM in test [3]; 1.63 µM in test [4]; 1.82 µM in test [6]. Also, the GI50 in test [10] is 0.832 µM; in test [7], 1.91 µM; in test [8] it was 1.72 µM. Also, the concentration for total growth inhibition (TGI) was 3.39 µM in test [9]; 3.18 µM in [1]; 3 µM in test [2]; 3.55 µM in test [3]; 3.49 µM in [4]; 3.37 µM in [6]. Moreover, the TGI was found to be 3.22 µM in test [10], 3.88 µM in test [7] and 3.21 µM in [8].

For `COC(=O)CCC(NC(=S)N/N=C/c1cccs1)C(=O)OC` (stereo unspecified), the TGI in [9], in test [1], in test [3], in test [4], in test [6] and in test [10] was above 100 µM in each case. Also, the TGI in test [7] and in test [8] was above 100 µM each time.
